{"source": "paper PMC11456426", "about": "“Study of transport, tissue distribution, depletion, and hepatotoxicity of Cyadox, a quinoxaline-1,4-dioxide derivative” (Frontiers in Pharmacology, 2024)", "key": {"[1]": {"biological_target": "T1, bovine serum albumin (BSA) (Bos taurus, UniProt P02769)", "T1 sequence (P02769 25-607)": "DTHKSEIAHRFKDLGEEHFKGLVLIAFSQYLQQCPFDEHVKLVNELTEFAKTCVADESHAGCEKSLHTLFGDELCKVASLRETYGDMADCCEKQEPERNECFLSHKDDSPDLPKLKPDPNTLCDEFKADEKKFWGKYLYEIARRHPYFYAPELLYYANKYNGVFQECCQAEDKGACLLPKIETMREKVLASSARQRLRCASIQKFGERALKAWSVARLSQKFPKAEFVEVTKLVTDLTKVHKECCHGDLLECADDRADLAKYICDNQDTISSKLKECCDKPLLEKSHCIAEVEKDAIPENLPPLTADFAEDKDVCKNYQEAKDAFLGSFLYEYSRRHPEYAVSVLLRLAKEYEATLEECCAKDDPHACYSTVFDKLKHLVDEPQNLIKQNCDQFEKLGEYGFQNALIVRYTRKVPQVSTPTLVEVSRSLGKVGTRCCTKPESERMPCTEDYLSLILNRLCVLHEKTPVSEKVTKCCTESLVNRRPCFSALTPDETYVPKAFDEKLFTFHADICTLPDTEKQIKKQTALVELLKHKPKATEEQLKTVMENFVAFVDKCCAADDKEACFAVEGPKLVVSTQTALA", "assay": "Fluorescence quenching of BSA by CYA (Stern-Volmer and binding constants)", "conditions": "for Kd: read-out: KA (binding constant) (converted)", "procedure": "The concentration of CYA was varied at 0, 0.33, 0.66, 1.0, 1.33, 1.66, and 2.0 × 10^−6 M.\nSteady-state fluorescence spectra were performed on a FP-6500 spectrofluorimeter (Jasco, Japan) equipped with a thermostatic bath and 1.0 cm quartz cell. Fluorescence emission spectra were recorded at 300, 305, and 310 K in the range of 295 nm–500 nm. The excitation and emission slits with a band pass of 5 nm were used for all the measurements.\nSynchronous fluorescence spectra were performed when the D-values between the excitation and emission wavelengths were set at 15 and 60 nm. Fluorescence excitation spectra were recorded at 302, 307, and 312 K in the range of 200–400 nm.\nThe Stern–Volmer equation below was used to analyze the fluorescence quenching data and confirm the quenching mechanism ([Zhou et al., 2022]): F0/F=1+KSVQ=1+kqτ0Q , where F 0 and F are the fluorescence intensities before and after the addition of the quencher CYA, K sv is the Stern–Volmer quenching constant, k q is the bimolecular quenching constant, τ 0 is the lifetime of the fluorophore in the absence of the quencher (10^−8 s), and [Q] is the concentration of the quencher. The Stern–Volmer quenching constant K sv is inversely correlated with temperature, and the k q values are much greater than the maximum scattering collisional quenching constant (2.0 × 10^10 M^−1S^−1).\nFor static quenching, the equilibrium between the free and bound molecules is given by the following equation: logF0−F/F=logKA+nlogQ , where K A is the binding constant, and n is the number of binding sites. […] Moreover, the values of n were approximately equal to 1, which indicated the presence of one binding site in the BSA–CYA system."}, "[2]": {"biological_target": "T1, bovine serum albumin (BSA)", "assay": "Circular dichroism spectra of the BSA-CYA system", "assay_type": "binding", "conditions": "1.0 × 10^−6 M BSA with 1.0 × 10^−6 M CYA, pH 7.4, 312 K", "procedure": "For CD studies, the final concentration of BSA and CYA was 1.0 × 10^−6 M. The CD spectra were recorded at 312 K with a Jasco-810 spectropolarimeter (Jasco, Japan) using a 0.1 cm quartz cuvette. Three scans were accumulated at a scan speed of 200 nm min^−1, with data being collected every 0.2 nm from 200 nm to 260 nm at 312 K."}, "liver": {"test_system": "liver", "assay": "Hepatotoxicity by liver transcriptomics", "assay_type": "in vivo, KM mice", "conditions": "mice, CYA 1,000 mg/kg bw, 7 days", "procedure": "For the hepatotoxicity study, a group of four mice (2 male and 2 female, KM) were administered CYA at a dose of 1,000 mg/kg bw. Another group of four mice received saline as a control. After 7 days, the mice were anaesthetised, sacrificed and their livers collected. A total of eight samples from 2 groups of the obtained livers were sent to Majorbio Technology Co., Ltd. (Shanghai, China) for testing, divided into the blank group (control; A1, A2, A3, A4) and the drug group administered CYA (drug; B1, B2, B3, B4), with 4 samples in each group. Sequencing was performed using the Meiji Medical Reference Transcriptome Sequencing Platform to complete the transcriptome analysis of eight samples. The raw reads were deposited into the NCBI Sequence Read Archive (SRA) database (BioProject: Number: PRJNA1082257).\nDifferently expressed genes are genes with significant differences obtained by computing the expression of all genes between different groups after transcriptome sequencing. On the Meggie Bio platform, differential gene analysis was carried out between groups by quantifying the expression results to obtain the genes that were differentially expressed between the two groups, and the differential analysis software was: DESeq2, the screening threshold was: |log2FC| ≥0 and padjust< 0.05, and the specific results are shown in Figure 5B below."}, "testis": {"test_system": "testis", "parameters": "method as in Ihsan et al., 2011", "conditions": "ref Ihsan et al., 2011, cited from earlier work"}}, "note": "Where two headings read alike, the source gives them in different places.", "data": [{"smiles": "N#CCC(=O)NN=Cc1c[n+]([O-])c2ccccc2[n+]1[O-]", "note": "[CYA, (2-formylquinoxaline)-N1,N4-dioxide cyanoacetylhydrazone]", "values": [{"measurement": "Ksv (Stern-Volmer quenching constant)", "setting": "[1]; T 302 K, pH 7.4", "result": 86500, "unit": "M⁻¹"}, {"measurement": "kq (bimolecular quenching constant)", "setting": "[1]; T 302 K, pH 7.4", "result": "8.65 × 10^12 M^−1S^−1"}, {"measurement": "n (number of binding sites)", "setting": "[1]; T 302 K, pH 7.4", "result": 1.139}, {"measurement": "Kd", "setting": "[1]; T 302 K, pH 7.4", "result": 5.71, "unit": "µM"}, {"measurement": "Ksv (Stern-Volmer quenching constant)", "setting": "[1]; T 307 K, pH 7.4", "result": 40700, "unit": "M⁻¹"}, {"measurement": "kq (bimolecular quenching constant)", "setting": "[1]; T 307 K, pH 7.4", "result": "4.07 × 10^12 M^−1S^−1"}, {"measurement": "n (number of binding sites)", "setting": "[1]; T 307 K, pH 7.4", "result": 0.915}, {"measurement": "Kd", "setting": "[1]; T 307 K, pH 7.4", "result": 103, "unit": "µM"}, {"measurement": "Ksv (Stern-Volmer quenching constant)", "setting": "[1]; T 312 K, pH 7.4", "result": 33600, "unit": "M⁻¹"}, {"measurement": "kq (bimolecular quenching constant)", "setting": "[1]; T 312 K, pH 7.4", "result": "3.36 × 10^12 M^−1S^−1"}, {"measurement": "n (number of binding sites)", "setting": "[1]; T 312 K, pH 7.4", "result": 0.931}, {"measurement": "Kd", "setting": "[1]; T 312 K, pH 7.4", "result": 178, "unit": "µM"}, {"measurement": "n (number of binding sites)", "setting": "[1]; all temperatures", "result": "~1"}, {"measurement": "BSA secondary structure, turns", "setting": "[2]; BSA alone 19%", "result": 26, "unit": "%"}, {"measurement": "BSA secondary structure, α-helix", "setting": "[2]; BSA alone 20%", "result": 21, "unit": "%"}, {"measurement": "BSA secondary structure, unordered", "setting": "[2]; BSA alone 26%", "result": 25, "unit": "%"}, {"measurement": "BSA secondary structure, β-strand", "setting": "[2]; BSA alone 35%", "result": 28, "unit": "%"}, {"measurement": "cell-process differential genes associated with apoptosis", "setting": "liver", "result": "none"}, {"measurement": "direction of change of lipid metabolism / steroid biosynthesis related genes", "setting": "liver", "result": "predominantly downregulated"}, {"measurement": "expression of StAR, P450scc, and 17β-HSD (liver transcriptomic data)", "setting": "liver", "result": "no significant decrease"}, {"measurement": "genes expressed uniquely after administration of the drug", "setting": "liver", "result": 249}, {"measurement": "genes of lipid metabolism-related pathways with significant changes", "setting": "liver", "result": 25}, {"measurement": "hepatotoxicity (transcriptomic assessment)", "setting": "liver", "result": "low hepatotoxicity"}, {"measurement": "significantly different genes associated with cell processes", "setting": "liver", "result": 23}, {"measurement": "genes significantly downregulated in liver, drug group vs blank group", "setting": "liver; DESeq2, padjust< 0.05", "result": 176}]}, {"smiles": "CC(=O)c1c(C)[n+]([O-])c2ccccc2[n+]1[O-]", "note": "[MEQ, Mequindox]", "values": [{"measurement": "mRNA expression levels of AR and 3β-HSD", "setting": "testis; 110 mg/kg vs control group", "result": "significantly increased"}, {"measurement": "mRNA expression levels of StAR, P450scc, and 17β-HSD in the testis", "setting": "testis; 275 mg/kg vs control group", "result": "significantly reduced"}]}]}
